One may read the EC50 as the concentration at which the effect is half-maximal. Broadly, the IC50 is the concentration that inhibits the measured activity by half.

Chain of PRMT5/MEP50 (O14744 other isoform, or with tags, fused parts or gaps): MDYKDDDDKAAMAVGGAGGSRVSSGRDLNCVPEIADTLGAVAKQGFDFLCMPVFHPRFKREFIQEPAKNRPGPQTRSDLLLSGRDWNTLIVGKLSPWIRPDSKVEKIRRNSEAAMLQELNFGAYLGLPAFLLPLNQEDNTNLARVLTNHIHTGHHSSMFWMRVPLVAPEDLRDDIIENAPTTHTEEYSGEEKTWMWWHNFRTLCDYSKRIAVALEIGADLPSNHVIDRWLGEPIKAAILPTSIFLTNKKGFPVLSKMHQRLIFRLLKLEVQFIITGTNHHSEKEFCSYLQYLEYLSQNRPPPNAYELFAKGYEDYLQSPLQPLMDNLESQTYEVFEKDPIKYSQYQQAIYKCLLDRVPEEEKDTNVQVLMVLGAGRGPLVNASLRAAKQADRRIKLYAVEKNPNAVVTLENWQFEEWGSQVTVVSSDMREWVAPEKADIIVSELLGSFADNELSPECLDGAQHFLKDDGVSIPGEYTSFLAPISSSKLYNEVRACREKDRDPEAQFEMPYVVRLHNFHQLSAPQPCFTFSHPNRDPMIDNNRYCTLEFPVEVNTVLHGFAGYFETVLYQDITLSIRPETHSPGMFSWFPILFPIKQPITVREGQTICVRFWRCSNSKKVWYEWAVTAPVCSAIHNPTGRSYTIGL
Chain of PRMT5/MEP50 (Q9BQA1 other isoform, or with tags, fused parts or gaps partner): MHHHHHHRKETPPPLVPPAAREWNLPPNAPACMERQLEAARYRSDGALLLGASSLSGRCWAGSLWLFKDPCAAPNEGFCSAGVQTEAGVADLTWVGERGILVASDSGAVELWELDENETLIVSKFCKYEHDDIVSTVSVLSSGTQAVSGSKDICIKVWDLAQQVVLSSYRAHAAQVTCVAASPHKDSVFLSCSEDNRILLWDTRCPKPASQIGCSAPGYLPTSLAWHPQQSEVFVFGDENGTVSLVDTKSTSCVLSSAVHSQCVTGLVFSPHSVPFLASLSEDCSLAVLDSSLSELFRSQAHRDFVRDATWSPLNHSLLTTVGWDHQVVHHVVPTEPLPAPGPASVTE

The test system of one assay is symmetric di-methyl arginine in Z-138 cells. Put plainly: Z-138 Methylation Assay (In Cell Western for symmetric di-methyl arginine and DNA content). Conditions: Homo sapiens, 96 hours incubation, read-out: ICW EC50. In kind it is cell-based. The text has this:
[formula] [formula] Where top and bottom are the normally allowed to float, but may be fixed at 100 or 0 respectively in a 3-parameter fit. The Hill Coefficient normally allowed to float but may also be fixed at 1 in a 3-parameter fit. Y is the % inhibition and X is the compound concentration. Z-138 Methylation Assay
Z-138 suspension cells were purchased from ATCC (American Type Culture Collection, Manassas, Va.). RPMI/Glutamax medium, penicillin-streptomycin, heat inactivated fetal bovine serum, and D-PBS were purchased from Life Technologies, Grand Island, N.Y., USA. Odyssey blocking buffer, 800CW goat anti-rabbit IgG (H+L) antibody, and Licor Odyssey infrared scanner were purchased from Licor Biosciences, Lincoln, Nebr., USA. Symmetric di-methyl arginine antibody was purchased from EMD Millipore, Billerica, Mass., USA. 16% Paraformaldehyde was purchased from Electron Microscopy Sciences, Hatfield, Pa., USA.
Z-138 suspension cells were maintained in growth medium (RPMI 1640 supplemented with 10% v/v heat inactivated fetal bovine serum and 100 units/mL penicillin-streptomycin) and cultured at 37° C. under 5% CO2.
Cell Treatment, in Cell Western (ICW) for Detection of Symmetric Di-Methyl Arginine and DNA Content.
Z-138 cells were seeded in assay medium at a concentration of 50,000 cells per mL to a 384-well cell culture plate with 50 μL per well. Compound (100 nL) from 384 well source plates was added directly to 384 well cell plate. Plates were incubated at 37° C., 5% CO2 for 96 hours. After four days of incubation, 40 μL of cells from incubated plates were added to poly-D-lysine coated 384 well culture plates (BD Biosciences 356697). Plates were incubated at room temperature for 30 minutes then incubated at 37° C., 5% CO2 for 5 hours. After the incubation, 40 μL per well of 8% paraformaldehyde in PBS (16% paraformaldahyde was diluted to 8% in PBS) was added to each plate and incubated for 30 minutes. Plates were transferred to a Biotek 405 plate washer and washed 5 times with 100 μL per well of wash buffer (1×PBS with 0.1% Triton X-100 (v/v)). Next 30 μL per well of Odyssey blocking buffer were added to each plate and incubated 1 hour at room temperature. Blocking buffer was removed and 20 μL per well of primary antibody was added (symmetric di-methyl arginine diluted 1:100 in Odyssey buffer with 0.1% Tween 20 (v/v)) and plates were incubated overnight (16 hours) at 4° C. Plates were washed 5 times with 100 μL per well of wash buffer. Next 20 μL per well of secondary antibody was added (1:200 800CW goat anti-rabbit IgG (H+L) antibody, 1:1000 DRAQ5 (Biostatus limited) in Odyssey buffer with 0.1% Tween 20 (v/v)) and incubated for 1 hour at room temperature. The plates were washed 5 times with 100 μL per well wash buffer then 1 time with 100 μL per well of water. Plates were allowed to dry at room temperature then imaged on the Licor Odyssey machine which measures integrated intensity at 700 nm and 800 nm wavelengths. Both 700 and 800 channels were scanned.
First, the ratio for each well was determined by:
Each plate included fourteen control wells of DMSO only treatment (minimum inhibition) as well as fourteen control wells for maximum inhibition treated with 3 μM of a reference compound (Background wells). The average of the ratio values for each control type was calculated and used to determine the percent inhibition for each test well in the plate. Reference compound was serially diluted three-fold in DMSO for a total of nine test concentrations, beginning at 3 μM. Percent inhibition was determined and IC50 curves were generated using triplicate wells per concentration of compound.
`O=C1CN(c2cccc(Cl)c2)CCN1CC(O)CN1CCc2ccccc2C1` (stereo not shown) [Compound 5, 4-(3-chlorophenyl)-1-(3-(3,4-dihydroisoquinolin-2(1H)-yl)-2-hydroxypropyl)piperazin-2-one]: the concentration giving a half-maximal response (EC50) fell in the range of 1 to 10 µM.

Take `Cc1ccccc1N1CCN(CC(O)CN2CCc3ccccc3C2)C(=O)C1` (stereo not shown) [Compound 10]: the concentration for a half-maximal effect (EC50) was above 50 µM. Same read-out and setting: under `O=c1cc(-c2ccccc2)ccn1C[C@H](O)CN1CCc2ccccc2C1` [Compound 13] stands above 50 µM; under `O=c1cc(-c2ccccc2)ccn1C[C@@H](O)CN1CCc2ccccc2C1` [Compound 14], above 50 µM. With `O=C(NC1CCOCC1)c1ccn(CC(O)CN2CCc3ccccc3C2)c(=O)c1` (stereo not shown) [Compound 33], the EC50 fell in the range of 1 to 10 µM. Same read-out and setting: to `O=C1CN(c2ccccc2F)CCN1CC(O)CN1CCc2ccccc2C1` (stereo not shown) [Compound 11, 1-(3-(3,4-dihydroisoquinolin-2(1H)-yl)-2-hydroxypropyl)-4-(2-fluorophenyl)piperazin-2-one] belongs above 50 µM. Regarding `O=C1CN(c2ccc(CO)cc2)CCN1CC(O)CN1CCc2ccccc2C1` (stereo not shown) [Compound 20], the EC50 lay within 1 to 10 µM.

A further assay deals with PRMT5/MEP50 (Homo sapiens (Human), UniProt O14744). Put plainly: PRMT5 Biochemical Assay (PRMT5/MEP50 enzyme assay on peptide substrate, 3H-SAM Flashplate). The note with it: PRMT5/MEP50 4 nM, 3H-SAM 75 nM, peptide 40 nM. The text has this:
S-adenosylmethionine (SAM), S-adenosylhomocysteine (SAH), bicine, KCl, Tween20, dimethylsulfoxide (DMSO), bovine skin gelatin (BSG), and Tris(2-carboxyethyl)phosphine hydrochloride solution (TCEP) were purchased from Sigma-Aldrich at the highest level of purity possible. ^3H-SAM was purchase from American Radiolabeled Chemicals with a specific activity of 80 Ci/mmol. 384-well streptavidin Flashplates were purchased from PerkinElmer.
Peptide representative of human histone H4 residues 1-15 was synthesized with a C-terminal linker-affinity tag motif and a C-terminal amide cap by 21st Century Biochemicals. The peptide was high high-perfomance liquid chromatography (HPLC) purified to greater than 95% purity and confirmed by liquid chromatography mass spectrometry (LC-MS). The sequence was Ac-[…][K-Biot]-amide (SEQ ID NO.:3).
Full-length human PRMT5 (NM_006109.3) transcript variant 1 clone was amplified from a fetal brain cDNA library, incorporating flanking 5′ sequence encoding a FLAG tag ([…]) (SEQ ID NO.:4) fused directly to Ala 2 of PRMT5. Full-length human MEP50 (NM_024102) clone was amplified from a human testis cDNA library incorporating a 5′ sequence encoding a 6-histidine tag (MHHHHHH) (SEQ ID NO.:5) fused directly to Arg 2 of MEP50. The amplified genes were sublconed into pENTR/D/TEV (Life Technologies) and subsequently transferred by Gateway™ attL×attR recombination to pDEST8 baculvirus expression vector (Life Technologies).
Recombinant baculovirus and Baculovirus-Infected Insect Cells (BIIC) were generated according to Bac-to-Bac kit instructions (Life Technologies) and Wasilko, 2006, respectively. Protein over-expression was accomplished by infecting exponentially growing Spodoptera frugiperda (SF9) cell culture at 1.2×10^6 cell/ml with a 5000 fold dilution of BIIC stock. Infections were carried out at 27° C. for 72 hours, harvested by centrifugation, and stored at −80° C. for purification.
Flag-PRMT5/6His-MeP50 was eluted with 300 mM Imidazole in the same buffer. The purity of recovered protein was 87%. Reference: Wasilko, D. J. and S. E. Lee: “TIPS: titerless infected-cells preservation and scale-up” Bioprocess J., 5 (2006), pp. 29-32.
General Procedure for PRMT5/MEP50 Enzyme Assays on Peptide Substrates.
The assays were all performed in a buffer consisting of 20 mM Bicine (pH=7.6), 1 mM TCEP, 0.005% BSG, and 0.002% Tween20, prepared on the day of use. Compounds in 100% DMSO (1 ul) were spotted into a polypropylene 384-well V-bottom plates (Greiner) using a Platemate Plus outfitted with a 384-channel head (Thermo Scientific). DMSO (1 ul) was added to Columns 11, 12, 23, 24, rows A-H for the maximum signal control and 1 ul of SAH, a known product and inhibitor of PRMT5/MEP50, was added to columns 11, 12, 23, 24, rows I-P for the minimum signal control. A cocktail (40 ul) containing the PRMT5/MEP50 enzyme and the peptide was added by Multidrop Combi (Thermo-Fisher). The compounds were allowed to incubate with PRMT5/MEP50 for 30 min at 25 degrees Celsius, then a cocktail (10 ul) containing ^3H-SAM was added to initiate the reaction (final volume=51 ul). The final concentrations of the components were as follows: PRMT5/MEP50 was 4 nM, ^3H-SAM was 75 nM, peptide was 40 nM, SAH in the minimum signal control wells was 100 uM, and the DMSO concentration was 1%. The assays were stopped by the addition of non-radioactive SAM (10 ul) to a final concentration of 600 uM, which dilutes the ^3H-SAM to a level where its incorporation into the peptide substrate is no longer detectable. 50 ul of the reaction in the 384-well polypropylene plate was then transferred to a 384-well Flashplate and the biotinylated peptides were allowed to bind to the streptavidin surface for at least 1 hour before being washed three times with 0.1% Tween20 in a Biotek ELx405 plate washer. […]
As for `O=C1CN(c2cccc(Cl)c2)CCN1CC(O)CN1CCc2ccccc2C1` (stereo not shown) [Compound 5, 4-(3-chlorophenyl)-1-(3-(3,4-dihydroisoquinolin-2(1H)-yl)-2-hydroxypropyl)piperazin-2-one], the IC50 was below 0.1 µM. As for `CN(C)c1ccc(N2CCN(C[C@H](O)CN3CCc4ccccc4C3)C(=O)C2)cc1` [Compound 30], the IC50 lay in the range of 1 to 10 µM. For the compound `O=C1COCCN1CC(O)CN1CCc2ccccc2C1` (stereo not shown) [Compound 28], the 50% inhibitory concentration (IC50) is 1 to 10 µM. Regarding `CS(=O)(=O)N1CCN(CC(O)CN2CCc3ccccc3C2)C(=O)C1` (stereo not shown) [Compound 22], the IC50 was in the range of 1 to 10 µM. Consider `O=C1CN(Cc2ccccn2)CCN1CC(O)CN1CCc2ccccc2C1` (stereo not shown) [Compound 25], for which the IC50 was 1 to 10 µM. Regarding `O=c1cc(Nc2ccccc2)ccn1C[C@H](O)CN1CCc2ccccc2C1` [Compound 18], the concentration for half-maximal inhibition (IC50) was in the range of 1 to 10 µM. Same read-out and setting: to `O=C1CN(Cc2ccccc2)CCN1CC(O)CN1CCc2ccccc2C1` (stereo not shown) [Compound 24] belongs 1 to 10 µM; to `Cc1cccc(N2CCN(CC(O)CN3CCc4ccccc4C3)C(=O)C2)c1` (stereo not shown) [Compound 3, 1-(3-(3,4-dihydroisoquinolin-2(1H)-yl)-2-hydroxypropyl)-4-(m-tolyl)piperazin-2-one], 10 to 50 µM. Regarding `O=C1CC(c2ccccc2)CCN1C[C@@H](O)CN1CCc2ccccc2C1` (stereo partly shown) [Compound 17], the IC50 fell in the range of 1 to 10 µM.

Turning to `O=C1CN(Cc2cccnc2)CCN1CC(O)CN1CCc2ccccc2C1` (stereo not shown) [Compound 26], the 50% inhibitory concentration (IC50) is 1 to 10 µM.

`O=c1cccc(CC(O)CN2CCc3ccccc3C2)[nH]1` (stereo not shown) [Compound 2]: the IC50 lay within 10 to 50 µM. Turning to `O=C(NC1CCOCC1)C1CC(=O)N(CC(O)CN2CCc3ccccc3C2)C1` (stereo not shown) [Compound 32], the half-inhibitory concentration (IC50) is above 10 µM. Regarding `O=C1CN(c2ccc(CO)cc2)CCN1CC(O)CN1CCc2ccccc2C1` (stereo not shown) [Compound 20], the 50% inhibitory concentration (IC50) lay in the range of 0.101 to 1 µM. Turning to `CC(=O)N1CCN(CC(O)CN2CCc3ccccc3C2)C(=O)C1` (stereo not shown) [Compound 21], the half-maximal inhibitory concentration (IC50) is 1 to 10 µM.

With `CN1CCN(CC(O)CN2CCc3ccccc3C2)C(=O)C1` (stereo not shown) [Compound 27], the IC50 was above 50 µM. Regarding `O=C1CC(c2ccccc2)CCN1C[C@H](O)CN1CCc2ccccc2C1` (stereo partly shown) [Compound 16], the IC50 lay within 1 to 10 µM. For the compound `O=C1CN(C2CCOCC2)CCN1CC(O)CN1CCc2ccccc2C1` (stereo not shown) [Compound 23], the IC50 fell in the range of 1 to 10 µM.

The next assay deals with Z-138 cells. Put plainly: Z-138 Proliferation Assay (Cell Titer Glo). The format is cell-based. The note with it: Homo sapiens, 120 h, 5 days, top concentration 20 μM. The text has this:
[formula] Z-138 Proliferation Assay
Z-138 suspension cells were purchased from ATCC (American Type Culture Collection, Manassas, Va.). RPMI/Glutamax medium, penicillin-streptomycin, heat inactivated fetal bovine serum were purchased from Life Technologies, Grand Island, N.Y., USA. V-bottom polypropylene 384-well plates were purchased from Greiner Bio-One, Monroe, N.C., USA. Cell culture 384-well white opaque plates were purchased from Perkin Elmer, Waltham, Mass., USA. Cell-Titer Glo® was purchased from Promega Corporation, Madison, Wis., USA. SpectraMax M5 plate reader was purchased from Molecular Devices LLC, Sunnyvale, Calif., USA.
Z-138 suspension cells were maintained in growth medium (RPMI 1640 supplemented with 10% v/v heat inactivated fetal bovine serum and cultured at 37° C. under 5% CO2. Under assay conditions, cells were incubated in assay medium (RPMI 1640 supplemented with 10% v/v heat inactivated fetal bovine serum and 100 units/mL penicillin-streptomycin) at 37° C. under 5% CO2.
For the assessment of the effect of compounds on the proliferation of the Z-138 cell line, exponentially growing cells were plated in 384-well white opaque plates at a density of 10,000 cells/ml in a final volume of 50 μl of assay medium. A compound source plate was prepared by performing triplicate nine-point 3-fold serial dilutions in DMSO, beginning at 10 mM (final top concentration of compound in the assay was 20 μM and the DMSO was 0.2%). A 100 nL aliquot from the compound stock plate was added to its respective well in the cell plate. […] After addition of compounds, assay plates were incubated for 5 days at 37° C., 5% CO2, relative humidity >90%. Cell viability was measured by quantitation of ATP present in the cell cultures, adding 35 μl of Cell Titer Glo® reagent to the cell plates. Luminescence was read in the SpectraMax M5 microplate reader. The concentration of compound inhibiting cell viability by 50% was determined using a 4-parametric fit of the normalized dose response curves.
Background: Cellular ATP, detected with luciferase, serves as a proxy for viable cell number.
`O=C(NC1CCOCC1)c1ccn(CC(O)CN2CCc3ccccc3C2)c(=O)c1` (stereo not shown) [Compound 33]: the concentration giving a half-maximal response (EC50) was above 20 µM.

For the origin of these results see patent US10150758B2, “PRMT5 inhibitors and uses thereof” (Epizyme, Inc., priority 2012, dated 2018).
